Source: patent US20230203081A1, “LINCOSAMIDE ANTIBIOTICS AND USES THEREOF” (President and Fellows of Harvard College, priority 2020, published 2023)
Converted amounts (≈) assume the structure as drawn. Read-outs that look alike come from different tables or passages of the source.

Assays:
Assay type in all cases: cell-based
[1] = system: broad panel of different clinical isolates; experiment: microbe, parasite or virus in culture
Method in brief: (§1)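 Per CLSI, MICs by broth microdilution or agar dilution; strains other than streptococci and anaerobes were sub-cultured overnight at 35° C on blood agar, with a final broth inoculum of 5×10^5 CFU/mL.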

A. baumannii ATCC 19606 = experiment: MIC (broth microdilution or agar dilution, CLSI)
Method in brief: as §1

E. faecium Line R & VRE = experiment: MIC (broth microdilution or agar dilution, CLSI); settings: Enterococcus faecium, read-out: MIC
Method in brief: (§2)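 Triplicate CLSI determinations by broth or agar dilution, compound at 128-0.06 μg/mL in 2.5% DMSO; special handling for anaerobes. Broth microdilution used 5×10^5 CFU/mL inocula in cation-adjusted Mueller-Hinton broth.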

S. aureus MRSA = experiment: MIC (broth microdilution or agar dilution, CLSI); settings: Staphylococcus aureus
Method in brief: as §2

E. faecium VRE = experiment: MIC (broth microdilution or agar dilution, CLSI); settings: Enterococcus faecium; E. faecium VRE; read-out: MIC
Method in brief: as §2

P. aeruginosa ΔAmex OprM = experiment: MIC (broth microdilution or agar dilution, CLSI)
Method in brief: as §2

B. fragilis ATCC 25285 = experiment: MIC (broth microdilution or agar dilution, CLSI); settings: Bacteroides fragilis, read-out: MIC
Method in brief: as §2

E. faecium Clinical VRE = experiment: MIC (broth microdilution or agar dilution, CLSI); settings: Enterococcus faecium; E. faecium Clinical VRE; read-out: MIC
Method in brief: as §2

S. aureus cErmA = experiment: MIC (broth microdilution or agar dilution, CLSI); settings: Staphylococcus aureus; S. aureus cErmA; read-out: MIC
Method in brief: as §2

C. scindens ATCC 35704 = experiment: MIC (broth microdilution or agar dilution, CLSI)
Method in brief: as §2

C. difficile ATCC 700057 = experiment: MIC (broth microdilution or agar dilution, CLSI)
Method in brief: as §2

P. aeruginosa ATCC 27853 = experiment: MIC (broth microdilution or agar dilution, CLSI)
Method in brief: as §2

[2] = system: E. coli MP-74 LptD mutant; experiment: MIC (broth microdilution or agar dilution, CLSI); settings: Escherichia coli
Method in brief: as §2

E. faecalis VRE = experiment: MIC (CLSI), second E. faecalis VRE line of Table 4; settings: Enterococcus faecalis; E. faecalis VRE (Table 4, second VRE line); read-out: MIC
Protocol: Minimum inhibitory concentrations (MICs) were determined by broth microdilution method or agar dilution method following the Clinical and Laboratory Standards Institute guidelines. Standard bacterial strains were obtained from American Type Culture Collection (ATCC). Other bacterial strains were obtained from hospitals and commercial sources, so noted in Table 11. Before the start of the MIC experiment, standard and test compound stock solutions were prepared in dimethyl sulfoxide (DMSO, Aldrich D2650) at a stock concentration of 5,120 μg/mL. The compound concentration range typically employed for each experiment was 128-0.06 μg/mL (2.5% final DMSO concentration). Clindamycin was used as a comparator in all experiments and each experiment was performed in triplicate. Specialized procedures were employed for streptococcal and anaerobic strains. All other bacterial strains were sub-cultured on blood agar plates (tryptic soy agar with 5% sheep blood, Hardy Diagnostics) and incubated overnight at 35° C. Organisms were suspended in cation-adjusted Mueller-Hinton broth (CaMHB, BD 212322) and optical density was adjusted to 0.5 McFarland standard. Suspensions were further diluted to obtain a final inoculum of 5×10^5 CFU/mL for broth microdilution experiments.

CSC1O[C@H]([C@H](NC(=O)[C@H]2NC[C@@H]3C[C@H](CC(C)C)CCO[C@H]32)[C@H](C)Cl)C(O)[C@@H](O)[C@H]1O (some centres unmarked) [FSA-513018b]
MIC ([1]; Neisseria gonorrhoeae, N. gonorrhoeae HAV#701, Clinical): 0.125 µg/mL (≈ 0.252 µM) | MIC ([1]; Neisseria gonorrhoeae, N. gonorrhoeae HAV#702, Clinical): 0.125 µg/mL (≈ 0.252 µM) | MIC ([1]; Staphylococcus aureus, MRSA, S. aureus HAV#218, Line R): 0.125 µg/mL (≈ 0.252 µM) | MIC ([1]; Staphylococcus aureus, MRSA, S. aureus HAV#220, Line R): > 128 µg/mL | MIC ([1]; Staphylococcus aureus, MSSA, S. aureus HAV#219, Line R): > 128 µg/mL | MIC ([1]; Staphylococcus aureus, S. aureus HAV#051, mecA, norA, spcl, ermA, aad1, aac6′-aph2″): ≤ 0.03 µg/mL | MIC ([1]; Staphylococcus aureus, S. aureus HAV#052, mecA, norA, fosB, blaZ): ≤ 0.03 µg/mL | MIC ([1]; Staphylococcus aureus, S. aureus HAV#053 mecA, norA, fosB): ≤ 0.03 µg/mL | MIC ([1]; Staphylococcus aureus, S. aureus HAV#211, Clinical): 2 µg/mL (≈ 4.04 µM) | MIC ([1]; Staphylococcus aureus, S. aureus HAV#212, Clinical): 0.06 µg/mL (≈ 0.121 µM) | MIC ([1]; Staphylococcus aureus, S. aureus HAV#213, Clinical): 0.06 µg/mL (≈ 0.121 µM) | MIC ([1]; Staphylococcus aureus, S. aureus HAV#214, Clinical): 0.03 µg/mL (≈ 0.0606 µM) | MIC ([1]; Staphylococcus aureus, S. aureus HAV#215, Clinical): 0.06 µg/mL (≈ 0.121 µM) | MIC ([1]; Staphylococcus aureus, S. aureus HAV#216, Clinical, cfr): 2 µg/mL (≈ 4.04 µM) | MIC ([1]; Staphylococcus aureus, VISA, S. aureus HAV#203, Clinical (VISA)): 1 µg/mL (≈ 2.02 µM) | MIC ([1]; Staphylococcus epidermidis, S. epidermidis HAV# 275 Clinical, cfr): 8 µg/mL (≈ 16.2 µM) | MIC ([1]; Staphylococcus epidermidis, S. epidermidis HAV# 276, cfr): > 16 µg/mL | MIC ([1]; Staphylococcus epidermidis, S. epidermidis HAV#277, Line R): 16 µg/mL (≈ 32.3 µM) | MIC ([1]; Staphylococcus epidermidis, S. epidermidis HAV#278 Line R): 32 µg/mL (≈ 64.6 µM) | MIC ([1]; Staphylococcus epidermidis, S. epidermidis HAV#279, Line R): 0.125 µg/mL (≈ 0.252 µM) | MIC ([1]; Staphylococcus haemolyticus, S. haemolyticus 5052, Line R & Methicillin R): 0.06 µg/mL (≈ 0.121 µM) | MIC ([1]; Staphylococcus haemolyticus, S. haemolyticus HAV#252, Line R & Methicillin R): 0.125 µg/mL (≈ 0.252 µM) | MIC ([1]; Streptococcus pneumoniae, ATCC700673, S. pneumoniae HAV#352, ATCC 700673, MDR): 0.5 µg/mL (≈ 1.01 µM) | MIC ([1]; Streptococcus pneumoniae, ATCCBAA255, S. pneumoniae HAV#354, ATCC-BAA-255): 0.125 µg/mL (≈ 0.252 µM) | MIC ([1]; Streptococcus pneumoniae, ATCCBAA334, S. pneumoniae HAV#353, ATCC-BAA-334): 0.125 µg/mL (≈ 0.252 µM) | MIC ([1]; Streptococcus pneumoniae, S. pneumoniae HAV#356, Clinical): 0.25 µg/mL (≈ 0.505 µM) | MIC ([1]; Streptococcus pneumoniae, S. pneumoniae HAV#358, Clinical): 0.125 µg/mL (≈ 0.252 µM) | MIC (A. baumannii ATCC 19606; A. baumanii HAV#010, ATCC 19606): 4 µg/mL (≈ 8.08 µM) | MIC (A. baumannii ATCC 19606; Acinetobacter baumannii, ATCC19606, A. baumannii ATCC 19606, read-out: MIC): 4 µg/mL (≈ 8.08 µM) | MIC (E. faecium Line R & VRE; E. faecium HAV#319, Line R & Vanco R): ≤ 0.06 µg/mL | MIC (E. faecium Line R & VRE; E. faecium Line R & VRE): 0.06 µg/mL (≈ 0.121 µM) | MIC (S. aureus MRSA): 0.06 µg/mL (≈ 0.121 µM) | MIC (E. faecium VRE): 1 µg/mL (≈ 2.02 µM) | MIC (P. aeruginosa ΔAmex OprM; P. aeruginosa HAV#039, ΔAmex OprM): 4 µg/mL (≈ 8.08 µM) | MIC (P. aeruginosa ΔAmex OprM; Pseudomonas aeruginosa): 4 µg/mL (≈ 8.08 µM) | MIC (B. fragilis ATCC 25285; ATCC25285, B. fragilis ATCC 25285): 0.5 µg/mL (≈ 1.01 µM) | MIC (B. fragilis ATCC 25285; ATCC25285, B. fragilis HAV#013, ATCC 25285): 0.5 µg/mL (≈ 1.01 µM) | MIC (E. faecium Clinical VRE): 1 µg/mL (≈ 2.02 µM) | MIC (S. aureus cErmA): 4 µg/mL (≈ 8.08 µM) | MIC (C. scindens ATCC 35704; C. scindens HAV#012, ATCC 35704): 0.125 µg/mL (≈ 0.252 µM) | MIC (C. scindens ATCC 35704; [Clostridium] scindens, ATCC35704, C. scindens ATCC 35704, read-out: MIC): 0.125 µg/mL (≈ 0.252 µM) | MIC (C. difficile ATCC 700057; C. difficile HAV#011, ATCC 700057): 0.25 µg/mL (≈ 0.505 µM) | MIC (C. difficile ATCC 700057; Clostridioides difficile, ATCC700057, C. difficile ATCC 700057, read-out: MIC): 0.25 µg/mL (≈ 0.505 µM) | MIC (P. aeruginosa ATCC 27853; P. aeruginosa HAV#009, ATCC 27853): 128 µg/mL (≈ 259 µM) | MIC (P. aeruginosa ATCC 27853; Pseudomonas aeruginosa, ATCC27853, P. aeruginosa ATCC 27853, read-out: MIC): 128 µg/mL (≈ 259 µM) | MIC [2]: 1 µg/mL (≈ 2.02 µM) | MIC (E. faecalis VRE): 1 µg/mL (≈ 2.02 µM)
